Source: the supplement of paper PMC10307832

Key:
Experiment in all cases: relative viability (nuclei count vs DMSO), 5 days (fraction); higher = more cells survive
Mirin + Bortezomib = compound: N=C1NC(=O)/C(=C/c2ccc(O)cc2)S1 [Mirin] + CC(C)C[C@H](NC(=O)[C@H](Cc1ccccc1)NC(=O)c1cnccn1)B(O)O [Bortezomib] (partner 0.002 µM)
In short: (§1)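 Relative viability equals treated-well nuclei counts divided by vehicle-well nuclei counts. Counts came from 4× images of lung cancer cell lines grown in 1536-well plates for 5 days after pin-tool dosing on the day after seeding. Dosing used one drug alone or a fixed anchor-drug dose plus five library-drug doses (not always all listed) in √10 steps, and values are medians of duplicate plates.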

[1] = compound: CCn1c(-c2nonc2N)nc2cnc(Oc3cccc(NC(=O)c4ccc(OCCN5CCOCC5)cc4)c3)cc21 + COc1cc2c(Oc3ccc(NC(=O)C4(C(=O)Nc5ccc(F)cc5)CC4)cc3F)ccnc2cc1OCCCN1CCOCC1 [Foretinib] (partner 0.25 µM)
In short: as §1

[2] = compound: CCC1=CN=CN=C1N2CCN(CC2)CC3=NC4=C(N3)C=C(C=C4)C(F)(F)F + COc1cc2c(Oc3ccc(NC(=O)C4(C(=O)Nc5ccc(F)cc5)CC4)cc3F)ccnc2cc1OCCCN1CCOCC1 [Foretinib] (partner 0.25 µM)
In short: as §1

Mirin + Luminespib = compound: N=C1NC(=O)/C(=C/c2ccc(O)cc2)S1 [Mirin] + CCNC(=O)c1noc(-c2cc(C(C)C)c(O)cc2O)c1-c1ccc(CN2CCOCC2)cc1 [Luminespib] (partner 0.01 µM)
In short: as §1

| Cell Line | relative viability (Mirin + Bortezomib; first compound 0.25 µM) | relative viability (Mirin + Bortezomib; first compound 0.7906 µM) | relative viability (Mirin + Bortezomib; first compound 2.5 µM) | relative viability (Mirin + Bortezomib; first compound 7.906 µM) | relative viability (Mirin + Bortezomib; first compound 25 µM) | relative viability ([1]; first compound 0.04 µM) | relative viability ([1]; first compound 0.1265 µM) | relative viability ([1]; first compound 0.4 µM) | relative viability ([1]; first compound 1.265 µM) | relative viability ([1]; first compound 4 µM) | relative viability ([2]; first compound 0.04 µM) | relative viability ([2]; first compound 0.1265 µM) | relative viability ([2]; first compound 0.4 µM) | relative viability ([2]; first compound 1.265 µM) | relative viability ([2]; first compound 4 µM) | relative viability (Mirin + Luminespib; first compound 0.25 µM) | relative viability (Mirin + Luminespib; first compound 0.7906 µM) | relative viability (Mirin + Luminespib; first compound 2.5 µM) | relative viability (Mirin + Luminespib; first compound 7.906 µM) | relative viability (Mirin + Luminespib; first compound 25 µM) |
| --- | --- | --- | --- | --- | --- | --- | --- | --- | --- | --- | --- | --- | --- | --- | --- | --- | --- | --- | --- | --- |
| NCI-H838 | 0.865 | 0.521 | 0.884 | 0.78 | 0.738 | 0.771 | 0.7 | 0.562 | 0.378 | 0.371 | 1.1 | 0.986 | 0.958 | 0.888 | 1.09 | 0.316 | 0.332 | 0.285 | 0.229 | 0.396 |
| COR-L23 | 1.1 | 1.08 | 1.03 | 1.06 | 0.968 | 0.91 | 0.778 | 0.569 | 0.182 | 0.176 | 0.925 | 0.861 | 0.986 | 0.918 | 0.897 | 0.763 | 0.726 | 0.609 | 0.626 | 0.499 |
| ChaGo-K-1 | 0.984 | – | 0.953 | 0.628 | 0.969 | 0.97 | 0.942 | 0.908 | 0.769 | 0.856 | 1.02 | 0.992 | 0.794 | 0.814 | 0.891 | 0.555 | 0.295 | 0.705 | 0.429 | 0.306 |
| HOP-62 | 0.727 | 0.867 | 0.725 | – | 0.836 | 1.12 | 1.22 | 1.02 | 0.864 | 0.789 | 1.14 | 1.12 | 1.07 | 1.25 | 0.942 | 0.956 | 0.987 | 0.923 | 1.05 | 1.03 |
| NCI-H1915 | 1.03 | – | 1.01 | 0.931 | 0.945 | 1.09 | 1.14 | 1.1 | 1.08 | 1.12 | 1.11 | 1.06 | 1.04 | 0.943 | 0.996 | 0.776 | – | 0.783 | 0.676 | 0.77 |
| BEN | 0.638 | 0.779 | 0.967 | 0.625 | 0.548 | 0.668 | 0.449 | 0.338 | 0.346 | 0.351 | 0.368 | 0.522 | 0.527 | 0.343 | 0.374 | 0.484 | 0.593 | 0.503 | 0.315 | 0.217 |
| NCI-H1437 | 0.498 | 0.436 | 0.438 | 0.41 | 0.472 | 1.26 | 1.31 | 1.23 | 1.06 | 0.865 | 1.23 | 1.14 | 1.15 | 1.15 | 1.08 | 1.13 | 1.11 | 1.08 | 1.09 | 1.11 |
